What follows are compounds tested against T1, SARM1 (50-724) (Homo sapiens, UniProt Q6SZW1) (assay: SARM1 (50-724) enzymatic assay (LC-MS/MS)). Details: Purified SARM1 (50-724) 2 nM, NMN as activator, NAD+ as substrate, 1 h at room temperature, read-out: IC50 (SARM1 inhibitory activity).
T1 construct: Purified SARM1 (50-724) with a final concentration of 2 nM was pre-incubated with a test compound
T1 sequence (Q6SZW1 50-724): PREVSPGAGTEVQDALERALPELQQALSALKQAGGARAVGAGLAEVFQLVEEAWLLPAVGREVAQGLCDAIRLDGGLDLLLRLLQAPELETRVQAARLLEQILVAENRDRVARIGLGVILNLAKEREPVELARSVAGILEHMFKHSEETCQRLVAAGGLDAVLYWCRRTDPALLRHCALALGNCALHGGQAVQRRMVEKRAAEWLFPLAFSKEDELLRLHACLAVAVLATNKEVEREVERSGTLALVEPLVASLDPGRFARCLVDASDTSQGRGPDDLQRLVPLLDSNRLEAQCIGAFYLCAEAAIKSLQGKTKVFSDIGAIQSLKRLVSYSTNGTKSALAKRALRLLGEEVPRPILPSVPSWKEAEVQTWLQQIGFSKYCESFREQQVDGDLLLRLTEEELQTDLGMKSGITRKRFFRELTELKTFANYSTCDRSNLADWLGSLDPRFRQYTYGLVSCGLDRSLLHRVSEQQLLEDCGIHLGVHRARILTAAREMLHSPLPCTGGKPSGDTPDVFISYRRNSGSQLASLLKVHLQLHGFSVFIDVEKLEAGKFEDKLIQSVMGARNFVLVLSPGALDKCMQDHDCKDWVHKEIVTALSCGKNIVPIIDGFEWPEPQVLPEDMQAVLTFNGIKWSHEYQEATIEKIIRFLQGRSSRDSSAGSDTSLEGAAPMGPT
Type: biochemical
In short: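 Reaction buffer was Dulbecco's PBS. Compound and 2 nM human SARM1 (50-724) were pre-incubated 15 min at room temperature, then […] NAD^+ and 200 µM NMN activator were added for 1 h at room temperature. Acetonitrile (70%) stop, LC-MS/MS read-out, IC50 values.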

Structure (SMILES) | IC50
Cc1nsc(Cl)c1-n1cnnc1-c1nc2cc(C(F)(F)F)ccc2[nH]1 [Example 118] | ≤ 100 nM
FC(F)(F)c1ccc2[nH]c(-c3nncn3-c3cccc(Cl)c3Br)nc2c1 [Example 119] | ≤ 100 nM
Fc1ccc(-n2cnnc2-c2nc3cc(C(F)(F)F)ccc3[nH]2)c(Cl)c1F [Example 120] | ≤ 100 nM
OCCc1nnc(-c2nc3cc(C(F)(F)F)ccc3[nH]2)n1-c1cccc(Cl)c1Cl [Example 121, 2-(4-(2,3-Dichlorophenyl)-5-(5-(trifluoromethyl)-1H-benzo[d]imidazol-2-yl)-4H-1,2,4-triazol-3-yl)ethan-1-ol] | ≤ 100 nM
NC(=O)Cc1nnc(-c2nc3cc(C(F)(F)F)ccc3[nH]2)n1-c1cccc(Cl)c1Cl [Example 122, 2-[4-(2,3-Dichlorophenyl)-5-[5-(trifluoromethyl)-1H-benzimidazol-2-yl]-1,2,4-triazol-3-yl]acetamide] | ≤ 100 nM
Cc1cncc(-n2cnnc2-c2nc3cc(C(F)(F)F)ccc3[nH]2)c1Cl [Example 123] | ≤ 100 nM
FC(F)(F)c1ccc2[nH]c(-c3nnc(COC4COC4)n3-c3cccc(Cl)c3Cl)nc2c1 [Example 124] | ≤ 100 nM
FC(F)(F)c1ccc2[nH]c(-c3nnc(CN4CCC4)n3-c3cccc(Cl)c3Cl)nc2c1 [Example 125] | ≤ 100 nM
OCCOCc1nnc(-c2nc3cc(C(F)(F)F)ccc3[nH]2)n1-c1cccc(Cl)c1Cl [Example 126] | ≤ 100 nM
OC1CC(OCc2nnc(-c3nc4cc(C(F)(F)F)ccc4[nH]3)n2-c2cccc(Cl)c2Cl)C1 (stereo not shown) [Example 127] | ≤ 100 nM
Clc1cccc(-n2cnnc2-c2nc3cc(C4CCOC4)ccc3[nH]2)c1Cl (stereo not shown) [Example 128, 2-(4-(2,3-dichlorophenyl)-4H-1,2,4-triazol-3-yl)-5-(tetrahydrofuran-3-yl)-1H-benzo[d]imidazole] | ≤ 100 nM
CCOC(=O)C1(c2ccc3[nH]c(-c4nncn4-c4cccc(Cl)c4Cl)nc3c2)CCC1 [Example 129] | ≤ 100 nM
OCC1(c2ccc3[nH]c(-c4nncn4-c4cccc(Cl)c4Cl)nc3c2)CCC1 [Example 130] | ≤ 100 nM
FC(F)(F)Oc1ccc2[nH]c(-c3nncn3-c3cccc(Cl)c3Cl)nc2c1 [Example 132, 2-(4-(2,3-dichlorophenyl)-4H-1,2,4-triazol-3-yl)-5-(trifluoromethoxy)-1H-benzo[d]imidazole] | ≤ 100 nM
OC1(c2ccc3[nH]c(-c4nncn4-c4cccc(Cl)c4Cl)nc3c2)CC1 [Example 133] | ≤ 100 nM
OC1(c2ccc3[nH]c(-c4nncn4-c4ccc(F)c(F)c4Cl)nc3c2)CC1 [Example 134] | ≤ 100 nM
N#CC1(c2ccc3[nH]c(-c4nncn4-c4ccc(F)c(F)c4Cl)nc3c2)CC1 [Example 135] | ≤ 100 nM
O=C1CCCN1c1ccc2[nH]c(-c3nncn3-c3cccc(Cl)c3Cl)nc2c1 [Example 137, 1-(2-(4-(2,3-dichlorophenyl)-4H-1,2,4-triazol-3-yl)-1H-benzo[d]imidazol-5-yl)pyrrolidin-2-one] | > 1000 nM
CC(C)Oc1ccc2[nH]c(-c3nncn3-c3cccc(Cl)c3Cl)nc2c1 [compound 109] | ≤ 100 nM

Reference: patent US20260258064A1 (SIRONAX LTD., priority 2023, published 2026)
